How the values were obtained:
[1] = biological target: T1, Orexin/Hypocretin receptor type 1 (Homo sapiens, UniProt O43613); test: (§1) Fluorescent Imaging Plate Reader (FLIPR) Assay: Orexin antagonist activity was determined by measuring changes in intracellular calcium levels using a Ca2+ sensitive fluorescent dye. The changes in fluorescent signal were monitored by Fluorescent Imaging Plate Reader (FLIPR) technology available from Molecular Devices, LLC, U.S.A. Orexin mediated increases in intracellular Ca2+ concentration were readily detected upon activation with orexin-A. Twenty-four hours prior to the assay, RBL-2H3 cells stably expressing either human orexin receptor 1 or human orexin receptor 2 were seeded in cell culture medium in black, clear-bottom 384-well plates (commercially available from Corning Inc., U.S.A.) and grown overnight at 37° C., 5% CO2. On the day of the assay, cell culture media was removed and cells were loaded with Calcium 5 Dye (commercially sold by Molecular Devices, LLC, U.S.A.) for 1 hour at 37° C., 5% CO2. Test compounds (at 10 point half log concentration response curves from 10 uM) were added to cells for 15 minutes prior to the addition of orexin-A to all wells, to achieve a final concentration that produces approximately an 80% maximal response. The IC50 values were determined from ten point concentration response curves. Curves were generated using the average of two wells for each data point.; format: cell-based
T1 sequence (O43613 whole entry): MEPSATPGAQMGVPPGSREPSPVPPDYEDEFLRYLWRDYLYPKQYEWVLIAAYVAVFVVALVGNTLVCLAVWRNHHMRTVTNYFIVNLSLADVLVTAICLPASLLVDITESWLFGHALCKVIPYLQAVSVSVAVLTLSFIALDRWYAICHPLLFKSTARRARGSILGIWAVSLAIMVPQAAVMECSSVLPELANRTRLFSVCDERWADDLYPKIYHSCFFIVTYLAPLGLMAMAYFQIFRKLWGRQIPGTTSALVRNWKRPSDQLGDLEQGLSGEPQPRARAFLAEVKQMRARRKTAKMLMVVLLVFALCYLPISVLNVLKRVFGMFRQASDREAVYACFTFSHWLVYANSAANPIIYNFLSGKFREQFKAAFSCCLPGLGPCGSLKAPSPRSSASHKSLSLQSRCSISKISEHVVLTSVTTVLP

Orexin receptor type 2 = biological target: T2, Orexin receptor type 2 (Homo sapiens, UniProt O43614); test: as §1; format: cell-based
T2 sequence (O43614 whole entry): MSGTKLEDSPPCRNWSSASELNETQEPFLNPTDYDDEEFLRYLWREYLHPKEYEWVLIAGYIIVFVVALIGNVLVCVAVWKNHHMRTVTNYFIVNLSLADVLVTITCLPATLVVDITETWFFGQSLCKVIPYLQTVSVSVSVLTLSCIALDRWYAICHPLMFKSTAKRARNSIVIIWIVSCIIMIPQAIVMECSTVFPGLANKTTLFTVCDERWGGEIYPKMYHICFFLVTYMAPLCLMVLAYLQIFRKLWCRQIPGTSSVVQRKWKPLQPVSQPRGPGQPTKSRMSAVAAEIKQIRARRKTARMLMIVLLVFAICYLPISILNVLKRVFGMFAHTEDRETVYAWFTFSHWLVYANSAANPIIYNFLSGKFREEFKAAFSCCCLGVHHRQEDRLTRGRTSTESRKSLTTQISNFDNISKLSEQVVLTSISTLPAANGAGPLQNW

Structure (SMILES) | IC50 [1] | IC50 (Orexin receptor type 2)
Cc1ccc(-n2nccn2)c(C(=O)N[C@H]2CCC[C@@H]2Nc2ncc3ccccc3n2)c1 | 24 nM | > 10000 nM
CCOc1cccc(OCC)c1C(=O)N[C@@H]1CCC[C@@H]1Nc1nc2ccccc2o1 | 130 nM | 1200 nM
COc1cccc(OC)c1C(=O)N[C@@H]1COC[C@@H]1Nc1nc2ccc(Cl)cc2s1 (relative stereo) | 220 nM | 1400 nM

From ChEMBL document CHEMBL5725243, “Cyclopentylbenzamide derivatives and their use for the treatment of psychotic and cognitive disorders” (2016)
